Laboratory results taken from a melting point compilation (Tetko et al.; mined from patent text by program, amines drawn as free bases though some values may be those of a salt).

SMILES | melting point
CC(C)C(=O)N[C@@H](CSC(=O)C(C)(C)C)C(=O)NCCSC(=O)C(C)(C)C | 106 to 108 °C
COc1cc2c(cc1Nc1ncc(Cl)c(N[C@H]3[C@@H](C(N)=O)[C@@H]4C=C[C@H]3C4)n1)CCN(CCS(C)(=O)=O)CC2 | 132 to 146 °C
Nc1cc(=O)n(Cc2ccc(Cl)c(Cl)c2)[nH]1 | 159 °C
O=C(CCCN1CCOCC1)c1ccc2c(c1)Cc1cc(C(=O)CCCN3CCOCC3)ccc1S2 | 90.5 to 91.5 °C
O=C(c1ccc(F)cc1)C1CCN(CCCn2c(=O)[nH]c3cc(C(F)(F)F)ccc32)CC1 | 160 °C
CC(C)(C)OC(=O)N1CCc2[nH]c3cccc(Br)c3c2CC1 | 223 to 225 °C
N=C(NC1CC1)N[N+](=O)[O-] | 127 to 130 °C
N#CC(=C(O)c1ccncc1)c1ccc(F)cc1 | 225 °C
CCCCCCCCCCCCC(=O)c1c[nH]c(C(=O)OC)c1 | 92 to 93 °C
COCCNC(=O)c1cccc(-c2cccc3cc(Cc4cccc(Cl)c4)sc23)c1 | 120 to 134 °C
OCC1OC(n2cnc3c(SCc4ccccc4)cc(Cl)nc32)C(O)C1O (stereo not drawn) | 154 to 156 °C
O=C1c2ccccc2C(=O)N1Cc1ccc(Cl)nc1 | 142 to 143 °C
CC(C)CCNC1=NS(=O)(=O)c2sc(Cl)cc2N1 | 230 to 232 °C
O=C(Nc1nccs1)c1c(C(F)(F)F)nc2cc(C(F)(F)F)ccc2c1O | 270 °C
Cc1ccsc1C(=O)Nc1ccc(I)cc1 | 141 to 142 °C
Cc1ccc(-c2occc2C(N)=O)cc1 | 174 °C
O=c1cnn(-c2ccc(Cl)c(C(c3ccc(Cl)cc3)c3nc(-c4ccccc4)c(CNC(=S)Nc4ccccc4)s3)c2Cl)c(=O)[nH]1 (stereo not drawn) | 159 °C
Nc1c(F)c(N2C[C@@H]3CCCN[C@@H]3C2)c(F)c2c1c(=O)c(C(=O)O)cn2[C@@H]1C[C@@H]1F | 145 to 149 °C
CCCCCCCCCCCCCC(=O)NCCCSc1ccncc1 | 80 to 81 °C
O=S(=O)(c1cccnc1)N1CCC(Nc2nc(Nc3cccc(C(F)(F)F)c3)nc(OCC(F)(F)F)n2)CC1 | 222 to 224 °C
Nc1ccc(C(=O)Nc2ccccc2-c2nnn[nH]2)cc1 | 202 to 204 °C
O=C(c1ccc(-c2ccccc2)cc1)C(Br)CCCl (stereo not drawn) | 85 to 88 °C
O=C1O[C@@H](Cn2ccnn2)CN1c1ccc(-c2ccc(C3=NOC(CNCCc4ccncc4)C3)nc2)c(F)c1 (stereo partly drawn) | 181 °C
CN(C)C(=O)c1cc(Cl)c(N)c(Cl)c1 | 134 °C
CN(C)Cc1ccc(-c2cccc(-c3ccnc4c(C(=O)c5cccs5)cnn34)c2)cc1 | 192 to 195 °C

SMILES | melting point
COC(=O)CSc1nc(Sc2ccc(Cl)cc2)ncc1[N+](=O)[O-] | 157 to 159 °C
O=C(Nc1cccc2c1C(=O)c1c-2n[nH]c1[C@H]1CC[C@H](C(=O)N2CCNCC2)CC1)NN1CCOCC1 | 247 to 248 °C
CCCCCCCCCCCCCCCCCNC(=O)OCCSCCOC(=O)NCc1ccccn1 | 73 to 74 °C
O=C(Nc1ccc(C(=O)N2Cc3ccccc3Cc3ccccc32)cn1)c1ccccc1-c1ccccc1 | 134 to 142 °C
O=C1NCCC[C@@H]1NS(=O)(=O)c1cccc(C(F)(F)F)c1 | 158 to 160 °C
N#CC1OC(=O)c2c(F)ccc(F)c21 (stereo not drawn) | 87 to 89 °C
CCCN(CCC)C1Cc2c[nH]c3ccc(C(=O)C(C)C)c(c23)C1 (stereo not drawn) | 128 °C
O=C1C2CC3CCC(C2)N3C1C(c1ccccc1)c1ccccc1 (stereo not drawn) | 137 to 138 °C
Nc1sc2c(c1C(=O)c1ccc(Br)s1)CCCC2 | 160 to 163 °C
O=C(O)CCCC(=O)c1ccc(O)c(CCC(=O)O)n1 | 134 to 136 °C
Cn1nc(C(F)(F)C(F)(F)F)cc1O | 183 to 188 °C
NC[C@H]1CN(c2ccc(N3CCOCC3=O)cc2)C(=O)O1 | 145 to 147 °C
CCCCC(=O)NC(C(=O)OCC)=C(N)Sc1ccccc1 | 115 °C
O=C(c1cccc(Br)c1)C(Br)C(Br)c1ccc(Br)cc1 (stereo not drawn) | 158 °C
O=C(NCCCO)c1cccc(Nc2nccc(-c3ccnc(NCCCO)c3)n2)c1 | 153 to 154 °C
O=C(O)CCc1cnoc1-c1ccc(Cl)s1 | 138 to 139 °C
Nc1c(-c2cc(Cl)ccc2O)c2cc([N+](=O)[O-])ccc2[nH]c1=O | 344 to 347 °C
O=C(O)c1ccc(-c2ccccn2)cc1 | 232 to 234 °C
Fc1ccc(N2CC3CCC2CN3Cc2ccccc2)cc1 (stereo not drawn) | 74 to 76 °C
NS(=O)(=O)c1ccc(-n2nc(C(F)(F)F)cc2-c2ccc(-c3cnco3)cc2)cc1 | 128 to 130 °C
Cc1ccc(NC(=O)c2cccc(C(F)(F)F)c2)cc1-c1ccc2cnncc2c1 | 97 to 100 °C
CC(C)[C@H](NC(=O)Cc1csc(N(C)C)n1)C(=O)N[C@@H](Cc1ccccc1)C[C@H](O)[C@H](Cc1ccccc1)NC(=O)Cc1cncs1 | 162 to 165 °C
O=C(Nc1ccc(F)cc1)N1CCc2cc(S(=O)(=O)N3CCN(c4cccc(Cl)c4)CC3)ccc21 | 192 to 194 °C
O=C1OC(=O)C(c2ccc(Cl)cc2)=C1Cl | 110 to 112 °C
O=c1[nH]c2ncc(-c3ccc(-n4cccn4)cc3)nc2n1CCC1CCOCC1 | 294 to 296 °C

Continued, values first:

melting point | SMILES
218 to 219 °C | CC(C)Cn1c(CNC(=O)OC(C)(C)C)c(-c2ccccc2)c2cc(O)ccc2c1=O
> 200 °C | CCOC(=O)c1ccc(-c2cnc3c(c2)NC(=O)CN3)cc1
144 to 146 °C | CCc1c(N)nc(-c2ccc(Cl)c(OC)c2F)nc1C(=O)OC
112 °C | CCCCOc1ccc(S(=O)(=O)C2(C(=O)O)CCN(Cc3ccc(F)cc3)CC2)cc1
111 to 112 °C | CC(=O)Nc1ccc(C(C)(C)C)cc1CN(C)C1CCCCC1
112 °C | Cn1ccnc1COc1ccc(-c2cc(-c3c[nH]nc3-c3ccccn3)ccn2)cc1
70 to 72 °C | Cc1ccc(CNc2nc(Cl)nc(OCC(F)(F)F)n2)o1
110 °C | CCCNC(=O)c1cc(-c2ccc(OC)cc2)nn(CC2CCCC2)c1=O
60 to 61 °C | CCOc1c(C2=C(C(C)(C)C)C(C)(C)CO2)oc2ccc(OC)cc12
88 to 89 °C | CC1(C)COC(c2ccc(F)cc2-c2ccc3c(c2)CCC(Cc2ccccc2)C3O)=N1 (stereo not drawn)
229 to 230 °C | CCOC(=O)C(=O)Nc1ccc(C(N)=O)c(C(N)=O)c1
90 to 94 °C | CC(C)(C)[Si](C)(C)O[C@@H]1C[C@]2(O)C[C@@H](OC2=O)[C@@H]1O
221 to 222 °C | Fc1ccc2c(CCCC3CNCc4c3[nH]c3cnc5cc(Cl)ccc5c43)noc2c1 (stereo not drawn)
125 to 127 °C | Cc1cc(OCCCC#Cc2ccc(OC(F)(F)F)cc2)ccc1OCC(=O)O
205 to 206 °C | CS(=O)(=O)c1ccc(Oc2ccc([N+](=O)[O-])cc2C#N)cc1
89 to 90 °C | CC(C)(C)c1cc(Br)c(C(C)(C)C)cc1N
194 to 195 °C | CCOC(=O)C1=CNc2cccnc2S1
153 °C | CC(=O)NCCOc1ccc(-c2ccc(=O)n(Cc3ccc(Cl)cc3F)c2)cc1
330 °C | Cc1ccc(-c2nsc3[nH]c4ccc(C)cc4c(=O)c23)cc1
160 to 161 °C | COc1cc2c(cc1OC)[C@@H]1CCCC[C@@H]1N=C2c1ccc(N)cc1 (racemic)
158 to 159 °C | Cc1nc(C)c(C(=O)Nc2ccc(-n3nc(C(F)(F)F)cc3C(F)(F)F)cc2)s1
197 to 198 °C | CCOC(=O)c1cc2c(=O)n(C)c3ccccc3n2c1
91 to 93 °C | CO[C@]1(c2cc(F)cc(OCc3ccc4c(ccc(=O)n4C)c3)c2)CCO[C@@H](C)C1
56 to 58 °C | C/C(=C\CCC1(C)CCc2cc(O[Si](C)(C)C(C)(C)C)c(C)c(C)c2O1)CCl (stereo not drawn)

melting point | SMILES
161 to 162 °C | CC(=O)OCC1OC(c2ccc(Cl)c(Cc3ccc(-c4ccc(F)nc4)s3)c2)C(OC(C)=O)C(OC(C)=O)C1OC(C)=O (stereo not drawn)
210 to 212 °C | Fc1ccc(Oc2cc3cnc(Cl)nc3cn2)c(F)c1
88 to 90 °C | CCOC(=O)Cc1c(C)n(Cc2cccc(OC)c2)c2ccc(OC)cc12
204 to 206 °C | COc1cc2ncc(C#N)c(Nc3cccc(C(C)=O)c3)c2cc1OC
85 to 86 °C | COC(=O)c1ccc2sc(C)c(Cl)c2c1
240 to 242 °C | NC(=O)C1Oc2cc(Cl)c(S(=O)(=O)c3ccc(Cl)cc3)cc2O1 (stereo not drawn)
180 °C | CC(N)c1nnc(Cc2cccc3ccccc23)[nH]c1=O (stereo not drawn)
248 to 252 °C | COc1cc2c(cc1OS(=O)(=O)C(F)(F)F)[nH]c1cc(-c3ccccc3Cl)c3c(c12)C(=O)NC3=O
124 °C | CC(OCc1cc2nc(C(F)(F)F)ccc2n1S(=O)(=O)c1ccc2ncsc2c1)C(=O)O (stereo not drawn)
133 to 134 °C | CCOC(=O)c1c(C)noc1NS(=O)(=O)c1ccccc1-c1ccc(CC(C)C)cc1
212 to 214 °C | O=c1c2cccc3cccc(c32)c2nc3cc(C(F)(F)F)ccc3n12
97 to 99 °C | C=CCOc1cc(-n2nc(C)c(C)c2C)c(F)cc1Cl
215 to 217 °C | COc1cc2c(cc1OC)Nc1nccn1C2
168 to 169 °C | CCOC(=O)c1c(Cl)nc2cc(OC)c(OC)cc2c1-c1ccc(OC)c(OC)c1
295 to 297 °C | CCCn1cc2c(C3C(=O)Nc4ccc(Br)cc43)nc(NCC(O)CO)nc2n1 (stereo not drawn)
91 to 92 °C | CCOc1nn(-c2ccc(C(F)(F)F)cn2)cc1CCCOc1ccc(OC(C)(C)C(=O)O)cc1
148 to 149 °C | Oc1ccc2c(c1O)OCC(c1cccc(F)c1)C2 (stereo not drawn)
194 to 197 °C | COc1ccccc1-c1ccc(OCC(=O)Nc2cscc2C(=O)O)nc1
134 to 136 °C | CC(=O)Nc1ccc(F)cc1OCCOc1ccc(N)cc1F
111 to 113 °C | CN(CCN(O)C(N)=O)Cc1cccc(Oc2cc(Cl)cc(Cl)c2)c1
284 to 286 °C | COc1ccc(N2CCOCC2)c2sc(-c3nc4ccccc4[nH]3)nc12
240 to 242 °C | Cn1c(COc2ccc(CC3SC(=O)NC3=O)cc2)nc2ccc(O)nc21 (stereo not drawn)
130 to 131 °C | CCOC(=O)c1cnc2cn[nH]c2c1Sc1ccccc1
72 to 74 °C | COc1cc(Cc2cnc(NCCCCc3ncccc3OC)[nH]c2=O)ccn1
